Test results taken from US11312727B1, “Macrocyclic flu endonuclease inhibitors” (Janssen BioPharma, Inc., priority 2018, dated 2022).

Tests used:
in vitro = settings: human, CC50, uninfected A549 cells, CellTiter-Glo
[1] = test system: Influenza strain A549 A/WSN/33 (H1N1); assay: microbe, parasite or virus in culture; format: cell-based; settings: Influenza A virus, A549, 20 h, A549 cells, influenza A/WSN/33 (H1N1), 20 hours incubation; read-out: A549_A(H1N1) EC50

SMILES | CC50 (in vitro) [nM] | EC50 [1] [nM]
O=C1c2c(O)c(=O)ccn2N2CN1CCCCCc1ccncc1[C@H]2c1ccccc1 (single isomer, unassigned) [Compound 34A, (18*R)-12-hydroxy-18-phenyl-5,6,7,8,9,18-hexahydro-10,17-methanodipyrido[1,2-b:4′,3′-k][1,2,5]triazacyclotridecine-11,13-dione] | > 2000 | 59
CC[C@@H]1/C=C/COc2c(ccc(Cl)c2Cl)C(c2ccccc2)N2CN1C(=O)c1c(O)c(=O)ccn12 (single isomer, unassigned) [Compound 121AA, (9*R,18*R,*E)-3,4-dichloro-9-ethyl-12-hydroxy-18-phenyl-6,9-dihydro-18H-10,17-methanobenzo[b]pyrido[1,2-f][1]oxa[5,6,9]triazacyclotridecine-11,13-dione] | > 200 | 3.5
CS(=O)(=O)c1ccccc1[C@@H]1c2cccc(F)c2OC/C=C\CN2CN1n1ccc(=O)c(O)c1C2=O (single isomer, unassigned) [Compound 122, (18*S,*Z)-4-fluoro-12-hydroxy-18-(2-(methylsulfonyl)phenyl)-6,9-dihydro-18H-10,17-methanobenzo[b]pyrido[1,2-f][1]oxa[5,6,9]triazacyclotridecine-11,13-dione] | > 200 | > 100
O=C1c2c(O)c(=O)ccn2N2CN1C/C=C\COc1cc(F)ccc1[C@H]2c1ccccn1 (single isomer, unassigned) [Compound 71B, (18*S,*Z)-3-fluoro-12-hydroxy-18-(pyridin-2-yl)-6,9-dihydro-18H-10,17-methanobenzo[b]pyrido[1,2-f][1]oxa[5,6,9]triazacyclotridecine-11,13-dione] | > 20000 | 7690
CC[C@@H]1/C=C/COc2ccccc2[C@H](c2ccccc2)N2CN1C(=O)c1c(O)c(=O)ccn12 [Compound 39AA, (9R,18S,E)-9-ethyl-12-hydroxy-18-phenyl-6,9-dihydro-18H-10,17-methanobenzo[b]pyrido[1,2-f][1]oxa[5,6,9]triazacyclotridecine-11,13-dione] | > 2000 | > 1000
O=C1c2c(O)c(=O)ccn2N2CN1C1(/C=C/COc3c(ccc(Cl)c3Cl)[C@H]2c2ccccc2)CC1 (single isomer, unassigned) [Compound 113A, (18′*R,*E)-3′,4′-dichloro-12′-hydroxy-18′-phenyl-6′H,18′H-spiro[cyclopropane-1,9′-[10,17]methanobenzo[b]pyrido[1,2-f][1]oxa[5,6,9]triazacyclotridecine]-11′,13′-dione] | > 200 | > 100
C[C@H]1/C=C/COc2c(F)cccc2[C@@H](c2ccccc2)N2CN1C(=O)c1c(O)c(=O)ccn12 (single isomer, unassigned) [Compound 141AB, (9*S,18*R,E)-4-fluoro-12-hydroxy-9-methyl-18-phenyl-6,9-dihydro-18H-10,17-methanobenzo[b]pyrido[1,2-f][1]oxa[5,6,9]triazacyclotridecine-11,13-dione] | > 50 | 2
O=C1c2c(O)c(=O)ccn2N2CN1CCC/C=C/COc1ccccc1[C@H]2c1ccccc1 (single isomer, unassigned) [Compound 67A, (2*R,*Z)-15-hydroxy-2-phenyl-12,13,14,16-tetrahydro-11H-4-oxa-1(1,3)-pyrido[2,1-f][1,2,4]triazina-3(1,2)-benzenacyclodecaphan-6-ene-14,16-dione] | > 2000 | > 1000
O=C1c2c(O)c(=O)ccn2N2CN1CC/C=C/CCOc1ccccc1[C@@H]2c1ccccc1 (single isomer, unassigned) [Compound 65D, (2*S,*E)-15-hydroxy-2-phenyl-12,13,14,16-tetrahydro-11H-4-oxa-1(1,3)-pyrido[2,1-f][1,2,4]triazina-3(1,2)-benzenacyclodecaphan-7-ene-14,16-dione] | > 2000 | 66
O=C1c2c(O)c(=O)ccn2N2CN1CCCCCc1ccccc1[C@H]2c1ccccn1 (single isomer, unassigned) [Compound 40B, (17*S)-4-hydroxy-16-(pyridin-2-yl)-7,8,9,10,11,16-hexahydro-6,17-methanobenzo[k]pyrido[1,2-b][1,2,5]triazacyclotridecine-3,5-dione] | > 2000 | > 1000
O=C1c2c(O)c(=O)ccn2N2CN1CC[C@H]1C[C@H]1COc1cccc3c1C2c1ccccc1SC3 (single isomer, unassigned) [Compound 144BB, (1*S,13*R,15*R)-7-hydroxy-17-oxa-24-thia-2,3,10-triazaheptacyclo[16.12.1.12,10.03,8.013,15.022,31.025,30]dotriaconta-4,18,20,22(31),25(30),26,28-heptaene-6,9-dione] | > 4000 | 51.3
O=C1c2c(O)c(=O)ccn2N2CN1C1(/C=C/COc3c(Cl)cccc3[C@@H]2c2ccccc2)CC1 (single isomer, unassigned) [Compound 96B] | > 1000 | > 500
O=C1c2c(O)c(=O)ccn2N2CN1C/C=C/CCc1cc(F)ccc1[C@@H]2c1ccccn1 (single isomer, unassigned) [Compound 57A, (16*R,E)-13-fluoro-4-hydroxy-16-(pyridin-2-yl)-7,10,11,16-tetrahydro-6,17-methanobenzo[k]pyrido[1,2-b][1,2,5]triazacyclotridecine-3,5-dione] | > 2000 | 32
O=C1c2c(O)c(=O)ccn2N2CN1CC/C=C/COc1cc(F)c(F)c3c1[C@@H]2c1ccccc1SC3 (single isomer, unassigned) [Compound 88C, (23b*R, E)-16,17-difluoro-6-hydroxy-10,13,18,23b-tetrahydro-9H-1,8-methano[1]benzothiepino[5,4,3-lm]pyrido[2,1-i][1,7,10,11]benzoxatriazacyclotetradecine-5,7-dione] | > 1000 | > 500
O=C1c2c(O)c(=O)ccn2N2CN1[C@H](C1CC1)/C=C/COc1c(ccc(F)c1F)[C@@H]2c1ccccc1 (single isomer, unassigned) [Compound 152AB, (9*R,18*S,*E)-9-cyclopropyl-3,4-difluoro-12-hydroxy-18-phenyl-6,9-dihydro-18H-10,17-methanobenzo[b]pyrido[1,2-f][1]oxa[5,6,9]triazacyclotridecine-11,13-dione] | > 100 | > 50
O=C1c2c(O)c(=O)ccn2N2CN1C[C@@H]1C[C@H]1COc1c(ccc(F)c1F)[C@@H]2c1ccccc1 (single isomer, unassigned) [Compound 139AB, (1a*R,8*S,17a*R)-4,5-difluoro-14-hydroxy-8-phenyl-1a,2,17,17a-tetrahydro-1H,8H-9,16-methanobenzo[b]cyclopropa[k]pyrido[1,2-f][1]oxa[5,6,9]triazacyclotridecine-13,15-dione] | 35900 | 4890
CC[C@@H]1/C=C/COc2c(F)cccc2[C@H](c2ccccn2)N2CN1C(=O)c1c(O)c(=O)ccn12 (single isomer, unassigned) [Compound 154BA, (9*R,18*R,*E)-9-ethyl-4-fluoro-12-hydroxy-18-(pyridin-2-yl)-6,9-dihydro-18H-10,17-methanobenzo[b]pyrido[1,2-f][1]oxa[5,6,9]triazacyclotridecine-11,13-dione] | > 100 | 6.8
C[C@H]1C/C=C/COc2c(F)cccc2[C@H](c2ccccc2)N2CN1C(=O)c1c(O)c(=O)ccn12 (single isomer, unassigned) [Compound 100BA, (2*S,9*S,*E)-33-fluoro-15-hydroxy-9-methyl-2-phenyl-12,13,14,16-tetrahydro-11H-4-oxa-1(1,3)-pyrido[2,1-f][1,2,4]triazina-3(1,2)-benzenacyclononaphan-6-ene-14,16-dione] | 40200 | 5210
O=C1c2c(O)c(=O)ccn2N2CN1CC/C=C/COc1cccc3c1[C@@H]2c1cccc(F)c1SC3 (single isomer, unassigned) [Compound 137A, (1*R,13*E)-25-fluoro-7-hydroxy-16-oxa-23-thia-2,3,10-triazahexacyclo[15.12.1.12,10.03,8.021,30.024,29]hentriaconta-4,7,13,17,19,21(30),24(29),25,27-nonaene-6,9-dione] | > 200 | > 100
O=C1c2c(O)c(=O)ccn2N2CN1C[C@H]1C[C@@H]1COc1cc(F)c(F)c3c1[C@H]2c1ccccc1SC3 (single isomer, unassigned) [Compound 127BA, (1a*S,11b*R,20a*S)-22,23-difluoro-17-hydroxy-1a,2,6,11b,20,20a-hexahydro-1H-5,4-(epiprop[1]en[1]yl[3]ylidene)-12,19-methanobenzo[6,7]thiepino[4,5-c]cyclopropa[k]pyrido[1,2-f][1]oxa[5,6,9]triazacyclotridecine-16,18-dione] | > 200 | 1.4
O=C1c2c(O)c(=O)ccn2N2CN1C/C=C\CCc1cnccc1[C@@H]2c1ccccc1 (single isomer, unassigned) [Compound 56B, (18*S,*Z)-12-hydroxy-18-phenyl-5,6,9,18-tetrahydro-10,17-methanodipyrido[1,2-b:3′,4′-k][1,2,5]triazacyclotridecine-11,13-dione] | > 2000 | 161
O=C1c2c(O)c(=O)ccn2N2CN1CCC=CCc1ccccc1C2c1ccccc1 (stereo not shown) [Compound 1, 4-hydroxy-16-phenyl-7,8,11,16-tetrahydro-6,17-methanobenzo[k]pyrido[1,2-b][1,2,5]triazacyclotridecine-3,5-dione] | > 2000 | 43
CC[C@H]1/C=C/COc2c(ccc(F)c2F)[C@H](c2ccccc2)N2CN1C(=O)c1c(O)c(=O)ccn12 [Compound 101BA, (9S,18S,E)-9-ethyl-3,4-difluoro-12-hydroxy-18-phenyl-6,9-dihydro-18H-10,17-methanobenzo[b]pyrido[1,2-f][1]oxa[5,6,9]triazacyclotridecine-11,13-dione] | > 200 | > 100
